Consider two compounds from US12156917B2, “CNP prodrugs with carrier attachment at the ring moiety” (ASCENDIS PHARMA GROWTH DISORDERS A/S, priority 2016, dated 2024).

Bridge positions count the residues as written; N and C are the ends. Ends that are not written are not given here.

For one data set, the system named is Crl:CD1(ICR) mice. The data set is described as follows: Evaluation of cardiovascular effects in the conscious telemetered mouse (subcutaneous administration). In kind it is in vivo. Here is the method:
Male Crl:CD1(ICR) mice (age range 8-13 weeks and body weight range 27.3-35.6 g at start of dosing) were surgically implanted with a TA11PA-C10 telemetry transmitter (Data Sciences International (DSI)) in the carotid artery. The body of the transmitter was placed subcutaneously in the lateral flank of the mouse. The mice were dosed subcutaneously in a latin square crossover design with at least 72 hours between dosing occasions. […] At least four mice were included at each dose level. Blood pressure (systolic (SAP), diastolic (DAP) and mean (MAP) and heart rate (HR, derived from blood pressure), were recorded using a digital data capture system linked with a DSI™ Ponemah data acquisition and analysis system. The capture system allowed recording of the cardiovascular parameters whilst the mice were in individual cages. On the day of each test session the animals were weighed and a predose recording was performed for at least 60 min prior to dosing. Each mouse was returned to the home cage and the cardiovascular parameters were recorded for approximately 48 hours postdose. Blood pressure and HR were reported at the following time points: −30, −20, −10, 5, 15 and 30 min postdose and 1, 2, 6, 12, 18, 24, 30, 36, 42 and 48 hours postdose. Each time point was presented as the average value of five minute's recording prior to the time point. The monitoring period was selected to cover exposure to the test items both prior to and after Tnax.

The conditions of data set [1]: doses up to 15 μg/kg, healthy volunteers; cited from earlier work.
The conditions of data set [2]: in vivo; cited from earlier work.

In the case of `CC[C@H](C)[C@@H]1NC(=O)[C@H](CCCNC(=N)N)NC(=O)[C@H](CC(=O)O)NC(=O)[C@H](CC(C)C)NC(=O)[C@H](CCCCN)NC(=O)[C@H](CC(C)C)NC(=O)CNC(=O)[C@H](Cc2ccccc2)NC(=O)[C@@H](NC(=O)CNC(=O)[C@H](CCCCN)NC(=O)[C@H](CO)NC(=O)[C@H](CC(C)C)NC(=O)CNC(=O)[C@H](CCCCN)NC(=O)[C@H](CCCCN)NC(=O)[C@H](CC(N)=O)NC(=O)[C@H](C)NC(=O)CNC(=O)[C@H](CCCCN)NC(=O)[C@H](Cc2ccc(O)cc2)NC(=O)[C@H](CCCCN)NC(=O)[C@H](CCCNC(=N)N)NC(=O)[C@H](C)NC(=O)[C@H](CC(N)=O)NC(=O)[C@@H]2CCCN2C(=O)[C@H](Cc2c[nH]cn2)NC(=O)[C@H](CCC(=O)O)NC(=O)[C@H](CCC(N)=O)NC(=O)[C@@H](N)CC(C)C)CSSC[C@@H](C(=O)O)NC(=O)CNC(=O)[C@H](CC(C)C)NC(=O)CNC(=O)[C@H](CO)NC(=O)[C@H](CCSC)NC(=O)[C@H](CO)NC(=O)CNC1=O` [CNP-38], the “MAP predose (mean±SD)” value in the data set on Crl:CD1(ICR) mice (predose, n = 4) is 106.8 ± 13.4 mmHg. Besides, in the data set on Crl:CD1(ICR) mice (sc, 800 μg CNP-38 eq/kg, up to 48 hours postdose), the “heart rate (HR)” value is listed as “not impacted”. Moreover, in the data set with Crl:CD1(ICR) mice (sc, 800 μg CNP-38 eq/kg, n = 4), the “MAP 5 min post dose (mean±SD)” value is 102.0 ± 7.5 mmHg, the “MAP 15 min post dose (mean±SD)” value is given as 89.5 ± 29.4 mmHg and the “MAP 30 min post dose (mean±SD)” value was 99.5 ± 25.2 mmHg.
One may read the half-life as how long it takes for the measured level to halve. With “BMN-111: modified recombinant human C-type Natriuretic Peptide; 17 amino acids added to form a 39 amino acid CNP analog (PGQEHPNARKYKGANKKGLSKGCFGLKLDRIGSMSGLGC; disulfide 23-39; chains of the INN, looked up)”, the blood pressure effect result in data set [1] is on record as “mild hypotension”. The half-life in data set [2] is 20 min.
